We go through 29 compounds from patent publication US20240425484A1, “INHIBITORS OF TYK2” (Atomwise Inc., priority 2023, published 2024).

One series deals with T1, TYK2-JH2 (Homo sapiens, UniProt P29597).
T1 construct: TYK JH2 enzyme mix (ChemPartner: CP20210818A-BV); purchased ChemPartner CP20210818A-BV
T1 sequence (P29597 589-875 limits assumed): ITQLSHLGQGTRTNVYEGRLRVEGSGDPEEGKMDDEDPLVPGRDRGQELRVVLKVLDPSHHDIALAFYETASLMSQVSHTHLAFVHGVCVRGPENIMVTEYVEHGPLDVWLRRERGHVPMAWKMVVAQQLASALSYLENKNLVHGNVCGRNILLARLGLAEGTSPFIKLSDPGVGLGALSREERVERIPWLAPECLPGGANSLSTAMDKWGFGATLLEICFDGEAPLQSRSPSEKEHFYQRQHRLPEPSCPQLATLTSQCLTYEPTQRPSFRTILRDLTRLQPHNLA
The experiment in a line: TYK2-JH2 HTRF binding assay (ligand efficiency). The settings on record: calculated (Equation 1) from IC50 of the TYK-JH2 binding assay. As to the method:
The following example describes the TYK2-JH2 HTRF binding assay used to determine the ligand efficiency of the TYK2 inhibitors.
To calculate ligand efficiency, Equation 1 is applied: […]
in which IC50 comes from the binding assay used to determine compound potency.
TYK JH2 enzyme mix (ChemPartner: CP20210818A-BV), tracer (ChemPartner: CP-0029472-051) and mAb Anti-6HIS Tb cryptate Gold (Cisbio: Cat No. 61HI2TLA) mix were prepared in assay buffer (10 mM MgCl2, 20 mM HEPES pH 7.5, 0.01% Triton X-100, 1 mM DTT). Compounds diluted in DMSO (Final Concentrations 0.1 to 0.000005 [μM]) and enzyme mix (0.5 nM Final Concentration) were added to 384 well plates, briefly centrifuged and incubated at room temperature for 10 minutes. After incubation, tracer mix (Tracer-35 nM final concentration); (MAb Anti-6HIS Tb cryptate Gold-0.5X final)) was added, briefly centrifuged then incubate at room temperature 60 minutes. After incubation, plates were read by Envision TR-FRET (Ex340/Em495/520) protocol (PerkinElmer-Envision 2104 multilabel plate reader).
Take `Cc1cncc(Nc2cc(Nc3ccccc3C(N)=O)ncn2)n1` [Compound 49, 2-(6-(6-methylpyrazin-2-ylamino)pyrimidin-4-ylamino)benzamide]: the “Ligand Efficiency” value is on record as “††† (†††: >0.39)”.

As to `Cc1cccc(Nc2cc(Nc3cccnc3C(N)=O)ncn2)n1` [Compound 50, 3-((6-((6-methylpyridin-2-yl)amino)pyrimidin-4-yl)amino) picolinamide], the “Ligand Efficiency” value is on record as “††† (†††: >0.39)”. For `Cc1cccc(Nc2cc(Nc3ccncc3C(N)=O)ncn2)n1` [Compound 51, 4-((6-((6-methylpyridin-2-yl)amino)pyrimidin-4-yl)amino) nicotinamide], the “Ligand Efficiency” value is on record as “††† (†††: >0.39)”. On to `Cc1cccc(Nc2cc(Nc3ncccc3C(N)=O)ncn2)n1` [Compound 52, 2-((6-((6-methylpyridin-2-yl)amino)pyrimidin-4-yl)amino) nicotinamide], for which the “Ligand Efficiency” value is reported as “††† (†††: >0.39)”. Still for that read-out and setting: next, `Cc1cccc(Nc2cc(Nc3ccccc3NS(C)(=O)=O)ncn2)n1` [Compound 53, N-(2-(6-(6-methylpyridin-2-ylamino)pyrimidin-4-ylamino)phenyl) methanesulfonamide]: “††† (†††: >0.39)”; `C[C@H]1COCCN1c1ccc(Nc2cc(Nc3ccccc3S(C)(=O)=O)ncn2)nc1` [Compound 54, (S)—N^4-(5-(3-methylmorpholino)pyridin-2-yl)-N^6-(2-(methylsulfonyl)phenyl)pyrimidine-4,6-diamine]: “† (†: <0.37)”. In the case of `Cc1cccc(Nc2cc(Nc3ccccc3S(C)(=O)=O)nc(C)n2)n1` [Compound 56, 2-methyl-N^4-(6-methylpyridin-2-yl)-N^6-(2-(methylsulfonyl)phenyl)pyrimidine-4,6-diamine], the “Ligand Efficiency” value is “† (†: <0.37)”. Consider `Cc1cccc(Nc2cc(Nc3ccccc3S(C)(=O)=O)nc(N)n2)n1` [Compound 57, N^4-(6-methylpyridin-2-yl)-N^6-(2-(methylsulfonyl)phenyl)pyrimidine-2,4,6-triamine], for which the “Ligand Efficiency” value is listed as “††† (†††: >0.39)”. As for `Cc1ccnc(Nc2cc(Nc3ccccc3C(N)=O)ncn2)n1` [Compound 58, 2-(6-(4-methylpyrimidin-2-ylamino)pyrimidin-4-ylamino)benzamide], the “Ligand Efficiency” value is listed as “††† (†††: >0.39)”. Still for that read-out and setting: next, `Cc1cccc(Nc2cc(Nc3cccnc3S(C)(=O)=O)ncn2)n1` [Compound 59, N^4-(6-methylpyridin-2-yl)-N^6-(2-(methylsulfonyl)pyridin-3-yl)pyrimidine-4,6-diamine]: “††† (†††: >0.39)”. As for `Cc1cccc(Nc2cc(Nc3ccncc3S(C)(=O)=O)ncn2)n1` [Compound 60, N^4-(6-methylpyridin-2-yl)-N^6-(3-(methylsulfonyl)pyridin-4-yl)pyrimidine-4,6-diamine], the “Ligand Efficiency” value was “††† (†††: >0.39)”. Take `Cc1cccc(Nc2cc(Nc3cnccc3C(N)=O)ncn2)n1` [Compound 61, 3-((6-((6-methylpyridin-2-yl)amino)pyrimidin-4-yl)amino) isonicotinamide]: the “Ligand Efficiency” value is “††† (†††: >0.39)”. Regarding `Cc1ccnc(Nc2cc(Nc3ccccc3P(C)(C)=O)ncn2)c1` [Compound 63, N^4-(2-(dimethylphosphoryl)phenyl)-N^6-(4-methylpyridin-2-yl)pyrimidine-4,6-diamine], the “Ligand Efficiency” value was “††† (†††: >0.39)”. For `CS(=O)(=O)c1cccnc1Nc1cc(Nc2ncccc2F)ncn1` [Compound 64, N^4-(3-fluoropyridin-2-yl)-N^6-(3-(methylsulfonyl)pyridin-2-yl)pyrimidine-4,6-diamine], the “Ligand Efficiency” value was “††† (†††: >0.39)”. Consider `COc1ccnc(Nc2cc(Nc3cccc(C)n3)ncn2)c1S(C)(=O)=O` [Compound 65, N^4-(4-methoxy-3-(methylsulfonyl)pyridin-2-yl)-N^6-(6-methylpyridin-2-yl)pyrimidine-4,6-diamine], for which the “Ligand Efficiency” value is listed as “††† (†††: >0.39)”.

Consider `Cn1ccc(Nc2cc(Nc3ccccc3S(C)(=O)=O)ncn2)n1` [Compound 66, N^4-(1-methyl-1H-pyrazol-3-yl)-N^6-(2-(methylsulfonyl)phenyl)pyrimidine-4,6-diamine], for which the “Ligand Efficiency” value was “††† (†††: >0.39)”. `Cn1ccc(Nc2cc(Nc3ccccc3C(N)=O)ncn2)n1` [Compound 67, 2-((6-((1-methyl-1H-pyrazol-3-yl)amino)pyrimidin-4-yl)amino)benzamide]: the “Ligand Efficiency” value is “††† (†††: >0.39)”. As to `Cc1cccnc1Nc1cc(Nc2ccccc2C(N)=O)ncn1` [Compound 68, 2-((6-((3-methylpyridin-2-yl)amino)pyrimidin-4-yl)amino)benzamide], the “Ligand Efficiency” value is “††† (†††: >0.39)”. `CS(=O)(=O)c1ccccc1Nc1cc(NC(=O)C2CC2)ncn1` [Compound 69, N^4-(cyclopropylcarbonyl)-N^6-(2-(methylsulfonyl)phenyl)pyrimidine-4,6-diamine]: the “Ligand Efficiency” value is recorded as “††† (†††: >0.39)”. As for `COc1ccc(Nc2cc(NC(=O)C3CC3)ncn2)c(C(N)=O)c1` [Compound 70, 2-((6-(cyclopropanecarboxamido)pyrimidin-4-yl)amino)-5-methoxy benzamide], the “Ligand Efficiency” value is reported as “††† (†††: >0.39)”. For `Cc1cccc(Nc2cc(Nc3ncccc3CS(C)(=O)=O)ncn2)n1` [Compound 71, N^4-(6-methylpyridin-2-yl)-N^6-(3-((methylsulfonyl)methyl)pyridin-2-yl)pyrimidine-4,6-diamine], the “Ligand Efficiency” value was “††† (†††: >0.39)”. `Cn1cc(-c2ccnc(Nc3cc(Nc4ccc(NC5(C)COC5)cn4)ncn3)c2S(C)(=O)=O)cn1` [Compound 72, N^4-(4-(1-methyl-1H-pyrazol-4-yl)-3-(methylsulfonyl)pyridin-2-yl)-N^6-(5-(3-methyloxetan-3-ylamino)pyridin-2-yl)pyrimidine-4,6-diamine]: the “Ligand Efficiency” value is recorded as “† (†: <0.37)”. Consider `CC1(Nc2ccc(Nc3cc(Nc4ncccc4S(C)(=N)=O)ncn3)nc2)COC1` (stereo not shown) [Compound 73, N^4-(5-((3-methyloxetan-3-yl)amino)pyridin-2-yl)-N^6-(3-(S-methylsulfonimidoyl)pyridin-2-yl)pyrimidine-4,6-diamine], for which the “Ligand Efficiency” value was “††† (†††: >0.39)”. For `CC1(Nc2cnc(Nc3cc(Nc4ncccc4S(C)(=O)=O)ncn3)cn2)COC1` [Compound 74, N^4-(5-(3-methyloxetan-3-ylamino)pyrazin-2-yl)-N^6-(3-(methylsulfonyl)pyridin-2-yl)pyrimidine-4,6-diamine], the “Ligand Efficiency” value was “††† (†††: >0.39)”. Same read-out and setting: next, `CC(c1ccc(Nc2ncnc(Nc3ncccc3S(C)(=O)=O)c2F)nc1)N1CC2(COC2)C1` (stereo not shown) [Compound 75, N^4-(5-(1-(2-oxa-6-azaspiro[3.3]heptan-6-yl)ethyl)pyridin-2-yl)-5-fluoro-N^6-(3-(methylsulfonyl)pyridin-2-yl)pyrimidine-4,6-diamine]: “† (†: <0.37)”. The same measure, in the same setting: next, `COc1ccnc(Nc2cc(Nc3ccc(C(C)N4CC5(COC5)C4)cn3)ncn2)c1S(C)(=O)=O` (stereo not shown) [Compound 76, N^4-(5-(1-(2-oxa-6-azaspiro[3.3]heptan-6-yl)ethyl)pyridin-2-yl)-N^6-(4-methoxy-3-(methylsulfonyl)pyridin-2-yl)pyrimidine-4,6-diamine]: “† (†: <0.37)”; `CC(c1ccc(Nc2cc(Nc3ncc(C4COC4)cc3S(C)(=O)=O)ncn2)nc1)N1CC2(COC2)C1` (stereo not shown) [Compound 78, N^4-(5-(1-(2-oxa-6-azaspiro[3.3]heptan-6-yl)ethyl)pyridin-2-yl)-N^6-(3-(methylsulfonyl)-5-(oxetan-3-yl)pyridin-2-yl)pyrimidine-4,6-diamine]: “† (†: <0.37)”; `CS(=O)(=O)c1ccccc1Nc1cc(Nc2ccc(NC3COC3)cn2)ncn1` [Compound 80, N^4-(2-(methylsulfonyl)phenyl)-N^6-(5-(oxetan-3-ylamino)pyridin-2-yl)pyrimidine-4,6-diamine]: “† (†: <0.37)”.

System in another series: not listed separately
The experiment in a line: Mouse pharmacokinetic study, oral administration. In kind it is in vivo. The settings on record: male; mouse plasma, PO at 5 mg/kg; read-out: Half-life t1/2. As to the method:
The following example describes the methods used to evaluate the pharmacokinetics of TYK2 inhibitors in vivo following dosing of a compound of the invention.
The pharmacokinetics of test compounds were evaluated in either male CD-1 mice or male C57BL/6 mice when administered by oral gavage and IV bolus injection. The animals were allowed free access to food and water before administration. The plasma samples were analyzed by LC-MS/MS and the concentration of test compound at each time point was determined by linear regression. Pharmacokinetic parameters were calculated from the plasma concentrations by non-compartmental modeling using WinNonlin 8.2.
Oral composition. To prepare a pharmaceutical composition for oral delivery, the test articles described herein were dissolved in DMSO and then mixed with necessary volume of PEG400 followed by 0.9% sterile saline or 5% dextrose in water or 5% Kolliphor HS 15 in saline to provide the final concentrations of 0.5 mg/mL or 1 mg/mL (Table 8). The resultant mixtures were suitable for oral administration.
The PK parameters measured in mouse plasma after treatment with TYK2 inhibitor compounds via PO (oral administration) at 5 mg/kg are summarized below in Tables 9-11.
In the case of `CS(=O)(=O)c1cccnc1Nc1cc(Nc2ccc3c(n2)CCCC3N2CC3(COC3)C2)ncn1` (stereo in doubt) [Compound 5, (R)—N^4-(5-(2-oxa-6-azaspiro[3.3]heptan-6-yl)-5,6,7,8-tetrahydroquinolin-2-yl)-N^6-(3-(methylsulfonyl)pyridin-2-yl)pyrimidine-4,6-diamine], the half-life was > 1.5 h.

The same series, now with this note: male; mouse plasma, PO at 5 mg/kg; read-out: Maximum plasma concentration Cmax.
As for `CS(=O)(=O)c1cccnc1Nc1cc(Nc2ccc3c(n2)CCCC3N2CC3(COC3)C2)ncn1` (stereo in doubt) [Compound 5, (R)—N^4-(5-(2-oxa-6-azaspiro[3.3]heptan-6-yl)-5,6,7,8-tetrahydroquinolin-2-yl)-N^6-(3-(methylsulfonyl)pyridin-2-yl)pyrimidine-4,6-diamine], the Cmax was > 1500 ng/mL.

Still in this series, the particulars now being: male; mouse plasma, PO at 5 mg/kg; read-out: Total systemic exposure AUCinf.
For the compound `CS(=O)(=O)c1cccnc1Nc1cc(Nc2ccc3c(n2)CCCC3N2CC3(COC3)C2)ncn1` (stereo in doubt) [Compound 5, (R)—N^4-(5-(2-oxa-6-azaspiro[3.3]heptan-6-yl)-5,6,7,8-tetrahydroquinolin-2-yl)-N^6-(3-(methylsulfonyl)pyridin-2-yl)pyrimidine-4,6-diamine], the AUC(0-inf) is > 2000 ng·h/mL.
